{"source": "paper PMC3368886", "about": "“ATPase Cycle and DNA Unwinding Kinetics of RecG Helicase” (PLoS ONE, 2012)", "key": {"[1]": {"target": "T1, RecG (Thermotoga maritima, UniProt Q9WY48)", "T1 construct": "made in house", "T1 sequence (Q9WY48 1-780)": "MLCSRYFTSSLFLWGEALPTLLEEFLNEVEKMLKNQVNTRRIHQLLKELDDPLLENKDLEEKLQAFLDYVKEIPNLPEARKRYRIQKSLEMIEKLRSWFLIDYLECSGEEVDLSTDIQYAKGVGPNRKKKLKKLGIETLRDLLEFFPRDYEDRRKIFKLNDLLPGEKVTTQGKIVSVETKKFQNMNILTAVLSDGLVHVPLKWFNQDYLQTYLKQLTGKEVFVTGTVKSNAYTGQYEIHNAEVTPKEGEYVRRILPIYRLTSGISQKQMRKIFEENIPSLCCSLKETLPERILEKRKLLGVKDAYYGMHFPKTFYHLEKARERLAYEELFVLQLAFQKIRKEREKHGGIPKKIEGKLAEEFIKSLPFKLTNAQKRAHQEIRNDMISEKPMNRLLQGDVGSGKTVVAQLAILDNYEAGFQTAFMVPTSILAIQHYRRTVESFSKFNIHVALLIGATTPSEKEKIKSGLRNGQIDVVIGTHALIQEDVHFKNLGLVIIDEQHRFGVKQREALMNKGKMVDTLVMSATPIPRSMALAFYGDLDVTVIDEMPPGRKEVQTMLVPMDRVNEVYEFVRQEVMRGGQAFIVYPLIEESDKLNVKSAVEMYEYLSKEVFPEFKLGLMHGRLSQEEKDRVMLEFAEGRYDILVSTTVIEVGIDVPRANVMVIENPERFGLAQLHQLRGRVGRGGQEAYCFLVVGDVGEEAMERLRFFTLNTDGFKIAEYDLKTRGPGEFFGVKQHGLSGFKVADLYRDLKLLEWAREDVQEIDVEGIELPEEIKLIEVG", "experiment": "Phosphate-water oxygen exchange during hydrolysis", "assay_type": "biochemical", "conditions": "DNA present (A40∶B40), γ-18O3 nucleotide, 25°C", "excerpt": "In order to get information about the reverse of cleavage step 2 (scheme in Figure 2A), phosphate-water oxygen exchange measurements were done using (γ-^18O3)mantATP. Intermediate exchange can occur between terminal oxygens of the nucleotide and water during hydrolysis, giving information about the value of k +3 /k −2, as previously described. In this case, (γ-^18O3)mantATP was used as substrate and partial hydrolysis occurred in the presence of RecG⋅DNA, as described in the materials and methods section. The Pi had very similar distribution of oxygen-18 as with (γ-^18O3)mantATP, consistent with essentially little reversal of the cleavage step (k +3 /k −2≥9). This is consistent with a rapid release of Pi.\nFor intermediate exchange during ATP hydrolysis, 0.5 µM RecG and 1 mM (γ-^18O3)ATP or (γ-^18O3)mantATP were incubated for 10 min (+1 µM DNA A40∶B40, Table S1) or 20 min (- DNA) at 25°C in a volume of 100 µl in the buffer described below. Pi was analyzed for distribution of different ^18O-labeled species on a mass spectrometer as described previously, [37] except that during purification, the ^18O-labeled Pi was detected by MDCC-PBP, rather than radioactive tracers.\nSupplementary file pone.0038270.s005.pdf: Table S2 Oxygen exchange during ATP or mantATP hydrolysis by RecG: distributions of oxygen-18 in the Pi product. Experiments were performed as described in Materials and Methods. The data were corrected for isotopic enrichment of the starting nucleotide, 93% for (γ-^18O3)mantATP and 98% for (γ-^18O3) ATP. […] Each distribution is the average of three mass spectral assays. Thus the distributions are for the product Pi as though the starting enrichment was 100%. In all cases there was very little oxygen exchange as shown by the large peak of (^18O3)Pi, in which all three γ-oxygens of ATP are retained. The distributions were then used to compute the ratio of rate constants for Pi release (k +3) and on-enzyme ATP resynthesis (k −2) as in Figure 2 [14], [37]."}, "[2]": {"target": "T1, RecG", "experiment": "Steady-state ATPase rate measurements with phosphate biosensor MDCC-PBP", "assay_type": "biochemical", "conditions": "for Ki: 10 µM ATP, varying inhibitor; for tightness of binding (competitive inhibition): result in words", "excerpt": "Steady-state measurements were made to gain an overall assessment of the reaction and the affinities of various nucleotides before investigating the individual steps in the ATPase cycle. A two-strand DNA junction, which contains two 20-bp regions of complementary and non-complementary sequences (A40:B40 Figure 1 and Table S1), was used in all these measurements. This forms a Y-shape structure and RecG translocates one single-stranded arm, but then remains bound to the end of the junction still hydrolyzing ATP [10].\nAll reactions with RecG and DNA were done at 20°C in a buffer containing 50 mM Tris⋅acetate (pH 8.0), 30 mM potassium acetate, 3 mM magnesium acetate and 1 mM DTT. ATPase measurements using MDCC-PBP were taken in the presence of a Pi mop, as described above. Steady-state ATPase measurements were taken in a solution (60 µl) at 20°C, containing 10 nM RecG, 500 nM DNA junction (A40∶B40, see Table S1) and 10 µM MDCC-PBP with varying nucleotide concentrations as substrate or inhibitor [23]."}, "[3]": {"target": "T2, RecG⋅DNA(A40:B40) (Thermotoga maritima, UniProt Q9WY48)", "T2 construct": "made in house", "T2 sequence (Q9WY48 1-780)": "T1 sequence (Q9WY48 1-780)", "experiment": "Stopped-flow mant fluorescence: mant nucleotide binding to RecG⋅DNA, pseudo-first-order", "protocol": "MantATP binding to RecG⋅DNA(A40:B40) was measured under pseudo-first-order conditions, that is mantATP in large excess over the protein. Using the stopped-flow apparatus, several concentrations of mantATP were rapidly mixed with RecG⋅DNA and fluorescence followed with time. Each trace was fitted by a single exponential (Figure 3A) and the concentration dependence of the observed rate constants were fit well by a hyperbola (Figure 3B). […] As mantATP is also hydrolyzed, the rate of the forward reaction needs to be included, in this case limited by the cleavage step 2, as described later. The fit gives 1/K 1a as 24 (±4) µM, k +1b + k −1b + k +2 as 26.1 (±1.8) s^−1 and the intercept gives k −1b + k +2 as <1 s^−1. Given that k +2 is 0.2 s^–1 (see below), k −1b is <0.8 s^−1. Potentially, an alternative explanation for such a hyperbolic relationship could be preferential binding of either the 2′- or 3′-isomer of mantATP and then isomerization of the non-favored isomer. However, the observed rates in these measurements were several orders of magnitude faster than the likely isomerization rate. In order to assess whether the two isomers of mantATP and their interconversion are factors in any fluorescence traces for mantATP, an equivalent measurement was made using 3′-mant-2′-deoxyATP.\nFigure 3 MantATP binding to RecG⋅DNA. MantATP at the micromolar concentrations shown was mixed in the stopped flow apparatus with 0.5 µM RecG and 2.5 µM DNA Junction (A40:B40) at 20°C in the buffer described in materials and methods. Individual traces (offset from each other) were fitted to single exponentials and the dependence of the rate constants on concentration was then fitted by a hyperbola. The points shown are averages of at least 3 measurements. The fit gives 1/K 1a as 24 (±4) µM and k +1b + k− 1b + k +2 as 26.1 (±1.8) s^−1 and the intercept was <1 s^–1 (Scheme in Figure 2B).\nMantADP binding to RecG⋅DNA complex was measured under pseudo-first order conditions by stopped-flow fluorescence.\nFigure 5 MantADP binding kinetics to RecG⋅DNA. MantADP at various concentrations was mixed in the stopped flow apparatus with 0.5 µM RecG and 2.5 µM DNA (A40:B40) under the conditions of Figure 4. Traces (not shown) were fitted by single exponentials. The rate constants are shown as a function of concentration and the best linear fit, gives a slope of 1.1 (±0.4) µM^−1s^−1 and an intercept of <1 s^−1.\n(§1) Stopped-flow experiments were performed in a HiTech SF61DX2 apparatus (TgK Scientific Ltd, Bradford-on-Avon, UK) with a mercury-xenon light source and HiTech KinetAsyst 3 or Kinetic Studio 1 software. For MDCC-PBP fluorescence, the excitation wavelength used was 436 nm and a 455 nm cut-off filter (Schott glass) used to collect emitted light. The signal was calibrated using known concentrations of Pi. The solutions contained the Pi mop, to minimize phosphate contamination and comprising 0.01 unit ml^−1 bacterial purine nucleoside phosphorylase and 200 µM 7-methylguanosine. For mant fluorescence, 366 nm was used to excite and a 400 nm cut-off filter (Schott glass) used to collect light. Measurements of Cy3 fluorescence used 547 nm excitation and a 570 nm cut-off filter. In experiments described, the quoted concentrations are those in the mixing chamber, except where stated. Data were fitted to theoretical curves using the HiTech software or Grafit."}, "[4]": {"target": "T2, RecG⋅DNA(A40:B40)", "experiment": "Single turnover mant fluorescence, excess RecG⋅DNA over mantATP", "assay_type": "biochemical", "conditions": "excess RecG⋅DNA(A40:B40)", "protocol": "Extra information relating to changes in a single ATPase cycle can be obtained by mixing excess RecG⋅DNA(A40:B40) with mantATP (Figure 4A). […] The first change in fluorescence is presumably due to binding. After fitting to a double exponential, the observed rate constant for the initial change was linearly dependent on RecG concentration over the small range possible (0.5 µM –2.5 µM), limited by protein precipitation at higher concentrations. Due to the low concentrations, a hyperbolic dependence would not be observed. The observed rate constant of the second increase in fluorescence, 0.22 (±0.05) s^−1 (Figure 4A), was independent of RecG concentration. This second phase is likely to be due to the cleavage step, leading to the formation of bound mantADP.\nFigure 4 Kinetic measurement of mantATP with excess of RecG and DNA: binding, hydrolysis and Pi release. The concentrations for all experiments were 0.5 µM mantATP, 2.5 µM RecG, 5 µM DNA (A40:B40) and 10 µM MDCC-PBP (for Pi measurement). All measurements were carried out at 20°C in the buffer described in Materials and Methods. (A) Time course of mant fluorescence (solid line), mantADP formation (circles) and Pi release (dashed line), measured as described in materials and methods. […] (B) Simulation of these time courses, based upon a global model for a single turnover of mantATP as described in the text. (C) The time course of mant fluorescence upon mixing 0.5 µM mantATP and 2.5 µM RecG with 5 µM DNA junction (A40:B40) after a first mixing of 5 µM RecG and 1 µM mantATP and aging for 1 s.\nas §1"}, "[5]": {"target": "T1, RecG", "experiment": "Titrations of RecG into fluorescent nucleotides in the absence of DNA", "assay_type": "binding", "protocol": "The two phases of this fluorescence increase with excess RecG⋅DNA would therefore relate to formation of bound mantATP (1.5-fold intensity increase relative to free nucleotide) and bound mantADP (4.9-fold). This interpretation was supported by titrations of RecG into the fluorescent nucleotides in the absence of DNA.\nSteady-state fluorescence was measured using a Cary Eclipse fluorimeter (Varian) with a xenon light source. Absorbance spectroscopy was performed using a Beckman DU640 spectrophotometer."}, "[6]": {"conditions": "500 nM DNA junction (A40:B40), 20°C"}, "[7]": {"conditions": "20°C, 10 nM RecG, 500 nM DNA junction (A40:B40)"}}}
{"compound": "(γ-^18O3)mantATP", "values": [{"measurement": "k +3 /k −2", "setting": "[1]", "value": "≥ 9"}]}
{"compound": "Nc1ncnc2c1ncn2[C@@H]1O[C@H](COP(=O)(O)OP(=O)(O)NP(=O)(O)O)[C@@H](O)[C@H]1O", "note": "[AMPPNP]", "values": [{"measurement": "Ki", "setting": "[2]; [6]", "value": 44, "unit": "µM"}, {"measurement": "tightness of binding (competitive inhibition)", "setting": "[2]", "value": "bound weakly"}]}
{"compound": "CNc1ccccc1C(=O)O[C@H]1C[C@H](n2cnc3c(N)ncnc32)O[C@@H]1COP(=O)(O)OP(=O)(O)OP(=O)(O)O", "note": "[Mant-deoxyATP, 3′-mant-2′-deoxyATP]", "values": [{"measurement": "K m", "setting": "[2]; [7]", "value": "3.1 (±1.4) µM"}, {"measurement": "k cat", "setting": "[2]; [7]", "value": "1.3 (±0.5) s^−1"}]}
{"compound": "CNc1ccccc1C(=O)O[C@H]1C[C@H](n2cnc3c(N)ncnc32)O[C@@H]1COP(=O)(O)OP(=O)(O)O", "note": "[Mant-deoxyADP]", "values": [{"measurement": "Ki", "setting": "[2]; [6]", "value": 0.1, "unit": "µM"}]}
{"compound": "Nc1ncnc2c1ncn2[C@@H]1O[C@H](CO[P@](=O)(O)O[P@](=O)(O)O[P@@](=O)(O)S)[C@@H](O)[C@H]1O", "note": "[ATPγS]", "values": [{"measurement": "Ki", "setting": "[2]; [6]", "value": 0.9, "unit": "µM"}, {"measurement": "tightness of binding (competitive inhibition)", "setting": "[2]", "value": "bound tightly"}, {"measurement": "rate of hydrolysis", "setting": "[2]; slowly hydrolyzed analogue", "value": 0.1, "unit": "s⁻¹"}]}
{"compound": "CNc1ccccc1C(=O)O[C@H]1[C@@H](O)[C@H](n2cnc3c(N)ncnc32)O[C@@H]1COP(=O)(O)OP(=O)(O)O", "note": "[mantADP]", "values": [{"measurement": "k +4 (mantADP dissociation rate constant, intercept)", "setting": "[3]; 20°C, linear fit", "value": "< 1", "unit": "s⁻¹"}, {"measurement": "Kd", "setting": "[3]; mantADP with RecG⋅DNA, used as model assumption", "value": "< 0.05", "unit": "µM"}, {"measurement": "increase in fluorescence on binding to RecG⋅DNA", "setting": "[3]; same conditions as hydrolysis and Pi release measurements", "value": 4.5, "unit": "fold"}, {"measurement": "fluorescence intensity increase of bound nucleotide relative to free nucleotide", "setting": "[4]", "value": 4.9, "unit": "fold"}, {"measurement": "increase in fluorescence on titration with RecG", "setting": "[5]", "value": 4.8, "unit": "fold"}, {"measurement": "Ki", "setting": "[2]; [6]", "value": 0.03, "unit": "µM"}]}
